Data on 18 compounds can be found in patent publication US8269000B2, “Substituted pyrimidine and triazine compounds” (Gruenenthal GmbH, priority 2008, dated 2012).

In one assay the target is T1, rat B1R (Rattus norvegicus, UniProt P97583).
T1 construct: expressed in transfected cells; host or cells: CHO K1 cells
T1 sequence (P97583 1-337): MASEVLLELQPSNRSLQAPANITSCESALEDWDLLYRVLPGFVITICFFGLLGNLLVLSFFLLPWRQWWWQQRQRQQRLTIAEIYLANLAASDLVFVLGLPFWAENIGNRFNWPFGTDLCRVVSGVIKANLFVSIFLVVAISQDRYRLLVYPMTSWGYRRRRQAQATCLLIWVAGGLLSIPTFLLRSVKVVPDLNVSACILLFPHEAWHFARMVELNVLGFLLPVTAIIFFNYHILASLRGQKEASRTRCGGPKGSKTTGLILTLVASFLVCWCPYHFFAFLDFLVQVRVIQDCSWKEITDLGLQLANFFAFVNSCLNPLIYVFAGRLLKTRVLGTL
The assay is described as follows: FLIPR Ca2+ functional study on bradykinin receptor 1 (rB1R CHO K1 cells). The note with it: % inhibition rat B1R at 10 μM. The class given is cell-based. The protocol: The agonistic or antagonistic activity of substances can be quantified on the bradykinin receptor 1 (B1R) of the species human and rat using ectopically expressing cell lines (CHO K1 cells) and with the aid of a Ca^2+-sensitive dye (Fluo-4) using a fluorescent imaging plate reader (FLIPR). The indication in % activation is based on the Ca^2+ signal after addition of Lys-Des-Arg^9-bradykinin (0.5 nM) or Des-Arg^9-bradykinin (100 nM). Antagonists lead to suppression of the Ca^2+ influx after the addition of the agonist. % Inhibition compared with the maximum achievable inhibition is indicated.
The agonistic or antagonistic activity of substances can be determined on the bradykinin receptor 1 (B1R) of the species human and rat using the following assay. According to this assay, the Ca^2+ influx through the channel is quantified with the aid of a Ca^2+-sensitive dye (Fluo-4 type, Molecular Probes Europe BV, Leiden, Netherlands) using a Fluorescent Imaging Plate Reader (FLIPR, Molecular Devices, Sunnyvale, USA).
Chinese hamster ovary cells (CHO K1 cells) which have been stably transfected with the human B1R gene (hB1R cells) or with the B1R gene of the rat (rB1R cells) are used. For functional studies, the cells are plated out on black 96-well plates having a clear base (BD Biosciences, Heidelberg, Germany or Greiner, Frickenhausen, Germany) in a density of 20,000-35,000 cells/well. The cells are left overnight at 37° C. and with 5% CO2 in culture medium (hB1R cells: Nutrient Mixture Ham's F12, Gibco Invitrogen GmbH, Karlsruhe, Germany or DMEM, Sigma-Aldrich, Taufkirchen, Germany; rB1R cells: D-MEM/F12, Gibco Invitrogen GmbH, Karlsruhe, Germany), with 10 vol.% FBS (fetal bovine serum, Gibco Invitrogen GmbH, Karlsruhe, Germany or PAN Biotech GmbH, Aidenbach, Germany). On the following day, the cells are loaded for 60 minutes at 37° C. with 2.13 μM Fluo-4 (Molecular Probes Europe BV, Leiden, Netherlands) in HBSS buffer (Hank's buffered saline solution, Gibco Invitrogen GmbH, Karlsruhe, Germany) […] (Sigma-Aldrich, Taufkirchen, Germany) and 10 mM HEPES (Sigma-Aldrich, Taufkirchen, Germany). The plates are then washed twice with HBSS buffer, and HBSS buffer additionally containing 0.1% BSA (bovine serum albumin; Sigma-Aldrich, Taufkirchen, Germany), 5.6 mM glucose and 0.05% gelatin (Merck KGaA, Darmstadt, Germany) is added to the plates. After incubation for a further 20 minutes at room temperature, the plates are inserted into the FLIPR for Ca^2+ measurement. Alternatively, washing is carried out with buffer A (15 mM HEPES, 80 mM NaCl, 5 mM KCl, 1.2 mM CaCl2, 0.7 mM MgSO4, 2 g/l glucose, 2.5 mM probenecid) followed by loading with buffer A with added 2.5 μM Fluo-4 and 0.025% Pluronic F127 (Sigma-Aldrich, Taufkirchen, Germany). The cells are then washed twice with buffer A and incubated for 30 minutes at room temperature with buffer A additionally containing 0.05% BSA and 0.05% gelatin and are then inserted into the FLIPR for Ca^2+ measurement. The Ca^2+-dependent fluorescence is measured before and after the addition of substances (λex=488 nm, λem=540 nm). Quantification is carried out by measuring the highest fluorescence intensity (FC, fluorescence counts) over time.
The FLIPR protocol consists of two substance additions. Test substances (10 μM) are first pipetted onto the cells and the Ca^2+ influx is compared with the control (hB1R: Lys-Des-Arg^9-bradykinin>=50 nM; rB1R: Des-Arg^9-bradykinin 10 μM). This gives the activation in %, based on the Ca^2+ signal after addition of Lys-Des-Arg^9-bradykinin (>=50 nM) or Des-Arg^9-bradykinin (10 μM). After 10-20 minutes' incubation, Lys-Des-Arg^9-bradykinin (hB1R) or Des-Arg^9-bradykinin (rB1R) is applied in the concentration of the EC80, and the influx of Ca^2+ is likewise determined. Antagonists lead to suppression of the Ca^2+ influx. The % inhibition compared with the maximum achievable inhibition is calculated. […]
For the compound `COc1cc(C)c(S(=O)(=O)N2CCC[C@H]2COc2nccc(N3CCC(CCN4CCCCC4)CC3)n2)c(C)c1` [G_CC-037], the “% inh. (rat B1R) 10 μM” value amounted to 102%.

The same assay, now with this note: CHO-K1, % inhibition rat B1R at 10 μM, read-out: % inh. (rat B1R) 10 μM.
On to `COc1cc(C)c(S(=O)(=O)N2CCC[C@H]2COc2ccnc(N(C)CCN3CCC(Oc4ccncc4)CC3)n2)c(C)c1` [H_CC-051, [4-[[(2S)-1-[(4-methoxy-2,6-dimethyl-phenyl)sulfonyl]-pyrrolidin-2-yl]-methoxy]-pyrimidin-2-yl]-methyl-[2-(4-pyridin-4-yloxy-piperidin-1-yl)-ethyl]amine], for which the inhibition at 10 µM was 99%.

In the case of `COc1cc(C)c(S(=O)(=O)N2CCC[C@H]2COc2nccc(N3CCC4(CC3)OCc3ccccc34)n2)c(C)c1` [G_CC-033, 1′-[2-[[(2S)-1-(4-methoxy-2,6-dimethylphenyl)sulfonyl-2-pyrrolidinyl]methoxy]-4-pyrimidinyl]spiro[1H-isobenzofuran-3,4′-piperidine]], the inhibition at 10 µM was 68%. Same read-out and setting: for `COc1cc(C)c(S(=O)(=O)N2CC(Oc3nccc(N4CCC(CCN5CCCCC5)CC4)n3)C2)c(C)c1` [G_CC-129, 2-[1-[(4-methoxy-2,6-dimethyl-phenyl)sulfonyl]-azetidin-3-yl]oxy-4-[4-(2-piperidin-1-yl-ethyl)-piperidin-1-yl]-pyrimidine] the value was 73%. Same read-out and setting: for `COc1cc(C)c(S(=O)(=O)N2CCC[C@H]2COc2nccc(N3CCC(c4nc(-c5ccncc5)no4)CC3)n2)c(C)c1` [G_CC-085, 5-[1-[2-[[(2S)-1-[(4-methoxy-2,6-dimethyl-phenyl)sulfonyl]-pyrrolidin-2-yl]-methoxy]-pyrimidin-4-yl]-piperidin-4-yl]-3-pyridin-4-yl-[1,2,4]oxadiazole] the value was 101%. Turning to `COc1cc(C)c(S(=O)(=O)N2CCC[C@H]2COc2ccnc(N3CCC(CCN4CCCC4)CC3)n2)c(C)c1` [H_CC-009, 4-[[(2S)-1-(4-methoxy-2,6-dimethylphenyl)sulfonyl-2-pyrrolidinyl]methoxy]-2-[4-(2-1-pyrrolidinylethyl)-1-piperidinyl]pyrimidine], the inhibition at 10 µM amounted to 85%. The same measure, in the same setting: for `COc1cc(C)c(S(=O)(=O)N2CCC[C@H]2COc2ccnc(N(C)CCN3CCC(c4ccccc4)(N4CCCC4)CC3)n2)c(C)c1` [H_CC-055, [4-[[(2S)-1-[(4-methoxy-2,6-dimethyl-phenyl)sulfonyl]-pyrrolidin-2-yl]-methoxy]-pyrimidin-2-yl]-methyl-[2-(4-phenyl-4-pyrrolidin-1-yl-piperidin-1-yl)-ethyl]-amine] the value was 92%; for `CCCCC1(N(C)C)CCN(CCN(C)c2ccnc(OCCN(C)S(=O)(=O)c3c(C)cc(OC)cc3C)n2)CC1` [G_CC-120, N-[2-[4-[2-(4-butyl-4-dimethylamino-piperidin-1-yl)-ethyl-methyl-amino]-pyrimidin-2-yl]oxy-ethyl]-4-methoxy-N,2,6-trimethyl-benzenesulfonic acid amide], 86%; for `COc1cc(C)c(S(=O)(=O)N2CCCCC2COc2ccnc(N3CCC(CCN4CCCC4)CC3)n2)c(C)c1` (stereo not drawn) [H_CC-002, 4-[[1-(4-methoxy-2,6-dimethylphenyl)sulfonyl-2-piperidinyl]methoxy]-2-[4-(2-1-pyrrolidinylethyl)-1-piperidinyl]pyrimidine], 77%.

In the case of `COc1cc(C)c(S(=O)(=O)N2c3ccccc3C[C@H]2COc2ccnc(N3CCN(c4ccncc4)CC3)n2)c(C)c1` [H_CC-019, (2S)-1-(4-methoxy-2,6-dimethylphenyl)sulfonyl-2-[[2-[4-(4-pyridyl)-1-piperazinyl]-4-pyrimidinyl]oxymethyl]indoline], the inhibition at 10 µM is 98%. Still for that read-out and setting: for `COc1cc(C)c(S(=O)(=O)N2c3ccccc3C[C@H]2COc2nccc(N3CCC(Oc4cnccn4)CC3)n2)c(C)c1` [G_CC-092, (2S)-1-[(4-methoxy-2,6-dimethyl-phenyl)sulfonyl]-2-[[4-(4-pyrazin-2-yloxy-piperidin-1-yl)-pyrimidin-2-yl]oxy-methyl]-2,3-dihydro-1H-indole] the value was 85%; for `COc1cc(C)c(S(=O)(=O)N2CCC[C@H]2COc2ccnc(N3CCC(O)(c4cccnc4)CC3)n2)c(C)c1` [H_CC-013, 1-[4-[[(2S)-1-(4-methoxy-2,6-dimethylphenyl)sulfonyl-2-pyrrolidinyl]methoxy]-2-pyrimidinyl]-4-(3-pyridyl)-4-piperidinol], 79%. Turning to `COc1cc(C)c(S(=O)(=O)N2CCC[C@H]2COc2ccnc(N3CCC(OCCN4CCCC4)(c4cccc(F)c4)CC3)n2)c(C)c1` [H_CC-092, 2-[4-(3-fluorophenyl)-4-(2-pyrrolidin-1-yl-ethoxy)-piperidin-1-yl]-4-[[(2S)-1-[(4-methoxy-2,6-dimethyl-phenyl)sulfonyl]-pyrrolidin-2-yl]-methoxy]-pyrimidine], the inhibition at 10 µM amounted to 50%. The same measure, in the same setting: as for `COc1cc(C)c(S(=O)(=O)N2c3ccccc3C[C@H]2COc2ccnc(N3CCN(C)CC3)n2)c(C)c1` [H_CC-016, (2S)-1-(4-methoxy-2,6-dimethylphenyl)sulfonyl-2-[[2-(4-methyl-1-piperazinyl)-4-pyrimidinyl]oxymethyl]indoline], the figure is 67%. The same measure, in the same setting: as for `CCCCC1(N(C)C)CCN(c2ccnc(OC[C@@H]3CCCN3S(=O)(=O)c3c(C)cc(OC)cc3C)n2)CC1` [G_CC-087, [4-butyl-1-[2-[[(2S)-1-[(4-methoxy-2,6-dimethyl-phenyl)sulfonyl]-pyrrolidin-2-yl]-methoxy]-pyrimidin-4-yl]-piperidin-4-yl]-dimethyl-amine], the figure is 101%; as for `COc1cc(C)c(S(=O)(=O)N2CCCCC2COc2ccnc(N3CCC(Oc4ccccn4)CC3)n2)c(C)c1` (stereo not drawn) [H_CC-079, 4-[[1-[(4-methoxy-2,6-dimethyl-phenyl)sulfonyl]-piperidin-2-yl]-methoxy]-2-(4-pyridin-2-yloxy-piperidin-1-yl)-pyrimidine], 73%.

With `COc1cc(C)c(S(=O)(=O)N2CCCCC2COc2nccc(N3CCC(c4nc(-c5ccncc5)no4)CC3)n2)c(C)c1` (stereo not drawn) [G_CC-103, 5-[1-[2-[[1-[(4-methoxy-2,6-dimethyl-phenyl)sulfonyl]-piperidin-2-yl]-methoxy]-pyrimidin-4-yl]-piperidin-4-yl]-3-pyridin-4-yl-[1,2,4]oxadiazole], the inhibition at 10 µM stood at 93%. Still for that read-out and setting: as for `COc1cc(C)c(S(=O)(=O)N2CCCCC2COc2nccc(N3CCN(c4ccc(F)cc4)CC3)n2)c(C)c1` (stereo not drawn) [G_CC-010, 4-[4-(4-fluorophenyl)-1-piperazinyl]-2-[[1-(4-methoxy-2,6-dimethylphenyl)sulfonyl-2-piperidinyl]methoxy]pyrimidine], the figure is 70%.
